We go through two molecules from ChEMBL document CHEMBL1135216, “New 2-(1-adamantylcarbonyl)pyridine and 1-acetyladamantane thiosemicarbazones-thiocarbonohydrazones: cell growth inhibitory, antiviral and antimicrobial activity evaluation” (Bioorg Med Chem Lett, 2002).

What is called GI50 is the concentration giving 50% growth inhibition. As usually defined, the TGI is the concentration at which net growth stops.

Assay [1] concerns HEL. Briefly: Tested for cytotoxic activity in human embryonic lung fibroblast (HEL). The format is functional.
The subject of assay [2] is HEL. Briefly: Tested for antiviral activity against human cytomegalovirus (AD-169) in human embryonic lung fibroblasts. The format is functional.
The test system of assay [3] is CCRF-CEM. Description: Tested for the inhibitory concentration against cell growth of human leukemic cell line CCRF-CEM. It is filed as functional.
The test system of assay [4] is CCRF-CEM. Briefly: Tested for the concentration required to reduce the viability of leukemia cells by 50% against cell growth of T cell leukemia cell line CCRF-CEM using MTT assay. It is filed as functional. Conditions: Homo sapiens. (Tetrazolium assays rely on reduction of a dye to a coloured formazan, in cell work by metabolically active cells.)
Assay [5] relates to CCRF-CEM. Briefly: Tested for the inhibitory concentration against cell growth of Tcell leukemic cell line CCRF-CEM using MTT assay. The format is functional. Particulars: Homo sapiens.
The test system of assay [6] is E6SM. Description: Tested for antiviral activity against VSV-virus in human embryonic skin muscle fibroblasts. Particulars: Muscle tissue. The format is functional.
Assay [7] concerns E6SM. Description: Tested for antiviral activity against herpes simplex virus type 1(KOS) in E6SM cell line(human embryonic skin-muscle fibroblasts). The format is functional.
The subject of assay [8] is E6SM. Description: Tested for antiviral activity against thymidine kinase-deficient (TK-HSV-2G) virus in E6SM cell line(human embryonic skin-muscle fibroblasts). The format is functional.
Assay [9] has as its system E6SM. Briefly: Tested for antiviral activity against vaccinia virus in human embryonic skin muscle fibroblast. The format is functional. Particulars: Muscle tissue.
Assay [10] has as its system HeLa. Briefly: The compound was tested for antiviral activity against VSV-virus in human epithelial cells. It is filed as functional.
The test system of assay [11] is E6SM. Briefly: Tested for cytotoxic activity in human embryonic skin muscle fibroblast (E6SM). The format is functional. Particulars: Muscle tissue.
Assay [12] deals with E6SM. Briefly: Antiviral activity against thymidine kinase-deficient (TK-HSV-1)virus in E6SM cell line(human embryonic skin-muscle fibroblasts). It is filed as functional.
The subject of the next assay is Escherichia coli. Briefly: Tested for the antimicrobial activity against Escherichia coli ATCC 25922. The format is functional.
Assay [13] relates to HEL. Description: Tested for antiviral activity against thymidine kinase deficient Varicella zoster virus in human embryonic lung fibroblasts. It is filed as functional.
The test system of assay [14] is HEL. Description: Tested for antiviral activity against thymidine kinase wild type Varicella zoster virus in human embryonic lung fibroblast. The format is functional.
Assay [15] deals with HeLa. Briefly: Tested for antiviral activity against coxsackie-B4 virus in human epithelial cell line. The format is functional.
For assay [16], the system named is HL-60. Briefly: Tested for the inhibitory concentration against cell growth of human leukemic cell line HL60. The format is functional.
Assay [17] concerns HL-60. Briefly: Tested for the concentration required to reduce the viability of leukemia cells by 50% against cell growth of HL60 acute myeloid leukemia using MTT assay. The format is functional. Particulars: Homo sapiens, read-out: LC50 (the source's name).
Assay [18] has as its system HL-60. Description: Tested for the inhibitory concentration against cell growth of HL60 acute myeloid leukemia using MTT assay. The format is functional. Particulars: Homo sapiens.
For assay [19], the system named is HeLa. Description: Tested for cytotoxic activity in human epithelial cell line (HeLa). The format is functional.
The subject of assay [20] is HuT78. Description: Tested for the inhibitory concentration against cell growth of human leukemic cell line HuT78. The format is functional.
For assay [21], the system named is HuT78. Briefly: Tested for the concentration required to reduce the viability of leukemia cells by 50% against cell growth of HuT78 T lymphoma using MTT assay. Conditions: Homo sapiens. The format is functional.
Assay [22] relates to HuT78. Description: Tested for the inhibitory concentration against cell growth of HuT78 T lymphoma using MTT assay. It is filed as functional. Particulars: Homo sapiens.
The test system of assay [23] is K562. Description: Tested for the concentration required to reduce the viability of leukemia cells by 50% against cell growth of K562 chronic myeloid leukemia using MTT assay. It is filed as functional. Particulars: Homo sapiens, read-out: LC50 (the source's name).
Assay [24] deals with K562. Briefly: Tested for the inhibitory concentration against cell growth of K562 chronic myeloid leukemia using MTT assay. The format is functional. Conditions: Homo sapiens.
In assay [25] the test system is K562. Description: Tested for the inhibitory concentration against cell growth of human leukemic cell line K562. The format is functional.
For a further assay, the system named is Klebsiella pneumoniae. Description: Tested for the antimicrobial activity against Klebsiella pneumoniae ATCC 13883. The format is functional.
For assay [26], the system named is MOLT-4. Briefly: Tested for the inhibitory concentration against cell growth of human leukemic cell line MOLT-4. The format is functional.
For assay [27], the system named is MT4. Briefly: Tested for effective concentration required to protect MT-4 cells against the cytopathicity of HIV-1(IIIB). Particulars: Homo sapiens, read-out: LC50 (the source's name). The format is functional. For orientation: Damage to the host cells serves as the signal in cytopathic effect assays.
Assay [28] deals with MT4. Briefly: Tested for effective concentration required to protect MT-4 cells against the cytopathicity of HIV-2(ROD). It is filed as functional, cell-based. Conditions: Homo sapiens.
Assay [29] deals with MOLT-4. Briefly: Tested for the concentration required to reduce the viability of leukemia cells by 50% against cell growth of T cell leukemia cell line MOLT-4 using MTT assay. The format is functional. Particulars: Homo sapiens.
Assay [30] relates to MOLT-4. Briefly: Tested for the inhibitory concentration against cell growth of Tcell leukemic cell line MOLT-4 using MTT assay. It is filed as functional. Conditions: Homo sapiens.
Assay [31] relates to RPMI-8226. Description: Tested for the inhibitory concentration against cell growth of human leukemic cell line RPMI8226. The format is functional.
Assay [32] relates to RPMI-8226. Description: Tested for the concentration required to reduce the viability of leukemia cells by 50% against cell growth of RPMI8226 multiple myeloma using MTT assay. It is filed as functional. Particulars: Homo sapiens, read-out: LC50 (the source's name).
In assay [33] the test system is RPMI-8226. Description: Tested for the inhibitory concentration against cell growth of […] multiple myeloma using MTT assay. The format is functional. Particulars: Homo sapiens.
The next assay concerns Staphylococcus aureus. Description: Tested for the antimicrobial activity against Staphylococcus aureus ATCC 6538. It is filed as functional.
Assay [34] has as its system Staphylococcus epidermidis. Briefly: Tested for the antimicrobial activity against Staphylococcus epidermidis ATCC 12228. It is filed as functional.
Another assay concerns Staphylococcus hominis. Briefly: Tested for the antimicrobial activity against Staphylococcus hominis ATCC 27844. The format is functional.
For assay [35], the system named is Vero. Description: Tested for cytotoxic activity in African green monkey kidney cells (Vero). The format is functional. Particulars: Chlorocebus sabaeus.
For assay [36], the system named is Vero. Description: Tested for antiviral activity against Punta toro virus in African green monkey kidney cell (Vero). It is filed as functional. Particulars: Chlorocebus sabaeus.
The subject of assay [37] is Vero. Description: Tested for antiviral activity against Reo-1 virus in African green monkey kidney cell (Vero). It is filed as functional. Conditions: Chlorocebus sabaeus.
Assay [38] has as its system Vero. Briefly: Tested for antiviral activity against Sindbis virus in African green monkey kidney cell (Vero). The format is functional. Conditions: Chlorocebus sabaeus.
Assay [39] deals with Vero. Briefly: Tested for antiviral activity against coxsackie B-4 virus in African green monkey kidney cell (Vero). It is filed as functional. Particulars: Chlorocebus sabaeus.
Assay [40] has as its system Vero. Briefly: Tested for antiviral activity against parainfluenza virus in african green monkey kidney cell (Vero). Conditions: Chlorocebus sabaeus. The format is functional.
Assay [41] relates to MT4. Description: Tested for cytotoxic concentration required to reduce the viability of MT-4 cells by 50%. The format is functional, cell-based. Particulars: Homo sapiens, read-out: EC50 (the source's name).

SMILES strings stand for the structures. Converted amounts (≈) assume the structure as drawn. Bounds are passed on as bounds.

In the assay with HEL [1], `Nc1ccn(C[C@@H](CO)OCP(=O)(O)O)c(=O)n1.O.O` [CIDOFOVIR] showed an MCC of more than 50 µg/mL. In the assay with HEL [2], this molecule showed an MIC of 0.27 µg/mL.

Regarding `C/C(=N/N=C(/S)NN)C12CC3CC(CC(C3)C1)C2`, the GI50 in the assay with CCRF-CEM [3] came to 36.8 µM; in the assay on HL-60 [16], 48.7 µM; in the assay with HuT78 [20], 20.5 µM; with K562 [25], 14.7 µM; with MOLT-4 [26] it was 22.2 µM; with RPMI-8226 [31], 94.2 µM. In addition, the TGI came to 100 µM in the assay with CCRF-CEM [4]; 100 µM in the assay on CCRF-CEM [5]; 92 µM with HL-60 [18]; 100 µM in the assay with HuT78 [21]; 100 µM in the assay with HuT78 [22]; 68.4 µM in the assay with K562 [24]. In addition, the TGI in the assay with MOLT-4 [29], with MOLT-4 [30] and with RPMI-8226 [33] was 100 µM throughout. Moreover, the MIC with E6SM [6] is more than 16 µg/mL; against E6SM [7], more than 16 µM; with E6SM [8], more than 16 µg/mL; in the assay on E6SM [9], more than 16 µg/mL; in the assay on HeLa [10] it was more than 16 µg/mL; against E6SM [12], more than 16 µg/mL. The MIC in the assay on Escherichia coli is more than 3760 µg/mL; in the assay with HEL [2] it was more than 5 µg/mL; against HEL [13], more than 20 µg/mL; with HEL [14], 10.5 µg/mL (≈ 39.4 µM); in the assay with HeLa [15] it was more than 16 µg/mL; against Klebsiella pneumoniae, more than 3760 µg/mL. For the same molecule, the MIC is more than 3760 µg/mL in the assay on Staphylococcus aureus; more than 3760 µg/mL in assay [34]; more than 3760 µg/mL against Staphylococcus hominis; more than 80 µg/mL in the assay on Vero [36]; more than 80 µg/mL in the assay on Vero [37]; more than 80 µg/mL with Vero [38]. Also, the MIC with Vero [39] and against Vero [40] was more than 80 µg/mL each time. The MCC with E6SM [11] was more than 80 µg/mL; in the assay with HEL [1], more than 20 µg/mL; in the assay with HeLa [19], 80 µg/mL; in the assay on Vero [35], 80 µg/mL. The CC50 in the assay on HL-60 [17] was 100 µM; in the assay with K562 [23] it was 100 µM; in the assay on RPMI-8226 [32] it was 100 µM; in the assay on MT4 [41], 7.1 µM. Also, the EC50 with MT4 [27] and in the assay with MT4 [28] was more than 7 µM throughout.
